In US20210094954A1, “PREPARATION METHODS AND APPLICATIONS OF 3,5-DISUBSTITUTED METHYLPYRAZOLO[1,5-A]PYRIMIDINE-7-HYDROXYLIC SALTS” (priority 2019, published 2021):
Read-outs that look alike come from different tables or passages of the source.

Experiments:
Format in all cases: cell-based
[1] = test system: Bacillus anthracis Bacillus 1; assay: microbe, parasite or virus in culture; conditions: Bacillus anthracis, 24 h, read-out: MIC values of in vitro antibacterial test results
[2] = test system: Enterococcus faecalis F2518(VRE); assay: microbe, parasite or virus in culture; conditions: Enterococcus faecalis, VRE, 24 h, read-out: MIC values of in vitro antibacterial test results
Peel fungus = assay: organism not typed; conditions: 37° C., 24 hours; read-out: MIC values of in vitro antibacterial test results
[3] = test system: Enterococcus faecalis 29212; assay: microbe, parasite or virus in culture; conditions: Enterococcus faecalis, 29212; 37° C., 24 hours; read-out: MIC values of in vitro antibacterial test results
Bacillus subtilis 168 = assay: microbe, parasite or virus in culture; conditions: Bacillus subtilis, 168; 37° C., 24 hours; read-out: MIC values of in vitro antibacterial test results
Oral Candida = assay: microbe, parasite or virus in culture; conditions: Candida
Bacillus cereus 2 = assay: microbe, parasite or virus in culture; conditions: Bacillus cereus, 2; 37° C., 24 hours; read-out: MIC values of in vitro antibacterial test results
[4] = test system: Streptococcus pneumoniae M2; assay: microbe, parasite or virus in culture; conditions: Streptococcus pneumoniae, M2; 37° C., 24 hours; read-out: MIC values of in vitro antibacterial test results
[5] = test system: Streptococcus agalactia B group; assay: microbe, parasite or virus in culture; conditions: Streptococcus; 37° C., 24 hours; read-out: MIC values of in vitro antibacterial test results
Clostridium perfringens = assay: microbe, parasite or virus in culture; conditions: Clostridium perfringens, 24 h, read-out: MIC values of in vitro antibacterial test results
[6] = test system: Staphylococcus aureus 43300(MRSA); assay: microbe, parasite or virus in culture; conditions: Staphylococcus aureus, MRSA, 24 h, read-out: MIC values of in vitro antibacterial test results
[7] = test system: Staphylococcus aureus 703(MRSA); assay: microbe, parasite or virus in culture; conditions: Staphylococcus aureus, MRSA, 24 h, read-out: MIC values of in vitro antibacterial test results
[8] = test system: F2518(VRE), Staphylococcus aureus resistant strain 43300(MRSA), 703 (MRSA), pneumococcal resistance bacteria 6303(PRSP); assay: microbe, parasite or virus in culture; conditions: read-out: MIC values (μM)
[9] = test system: Streptococcus pneumoniae 6303 (PRSP); assay: microbe, parasite or virus in culture; conditions: Streptococcus pneumoniae, PRSP, 24 h, read-out: MIC values of in vitro antibacterial test results
[10] = test system: Staphylococcus aureus 29231; assay: microbe, parasite or virus in culture; conditions: Staphylococcus aureus, 29231; 37° C., 24 hours; read-out: MIC values of in vitro antibacterial test results
Diphtheria bacilli = assay: organism not typed; conditions: 37° C., 24 hours; read-out: MIC values of in vitro antibacterial test results
[11] = test system: Streptococcus pneumoniae 10351; assay: microbe, parasite or virus in culture; conditions: Streptococcus pneumoniae, 10351; 37° C., 24 hours; read-out: MIC values of in vitro antibacterial test results
[12] = 37° C., 24 hours, read-out: MIC values of in vitro antibacterial test results

Compound | MIC [1] [µg/mL] | MIC [2] [µg/mL] | MIC (Peel fungus) [µg/mL] | MIC [3] [µg/mL] | MIC (Bacillus subtilis 168) [µg/mL] | MIC (Oral Candida; [12]) [µg/mL] | MIC (Bacillus cereus 2) [µg/mL] | MIC [4] [µg/mL] | MIC [5] [µg/mL] | MIC (Clostridium perfringens) [µg/mL] | MIC [6] [µg/mL] | MIC [7] [µg/mL] | MIC [8] [µg/mL] | MIC [9] [µg/mL] | MIC [10] [µg/mL] | MIC (Diphtheria bacilli) [µg/mL] | MIC [11] [µg/mL] | MIC (Oral Candida; read-out: MIC values (μM)) [µg/mL]
Cc1nn2c([O-])cc(-c3ccc(C(N)=O)cc3)nc2c1-c1ccc(F)cc1F.[Na+] [Compound 11, Sodium 5-(4-carbamoylphenyl)-3-(2,4-difluorophenyl)-2-methylpyrazolo[1,5-α]pyrimidin-7-olate] | > 150 | < 150 | < 150 | < 150 | > 150 | < 150 | < 150 | < 100 | > 150 | > 150 | < 100 | < 150 | < 100 | > 150 | > 150 | > 150 | > 150 | 
Cc1nn2c([O-])cc(-c3ccc(N(C)C)cc3)nc2c1-c1ccc(F)cc1F.[K+] [Compound 24, Potassium 3-(2,4-difluorophenyl)-5-(4-(dimethylamino)phenyl)-2-methylpyrazolo[1,5-α]pyrimidin-7-olate] | > 150 | < 150 | < 150 | < 100 | < 100 | < 100 | < 100 | < 100 | > 150 | < 150 | < 150 | < 100 | < 100 | < 150 | < 100 | > 150 | < 100 | < 100
Cc1nn2c([O-])cc(-c3ccc(C(F)(F)F)cc3)nc2c1-c1ccc(F)cc1F.[Na+] [Compound 1, sodium 3-(2,4-difluorophenyl)-2-methyl-5-(4-(trifluoromethyl)-phenyl)pyrazolo[1,5-α]pyrimidin-7-olate] | > 150 | < 150 | > 150 | < 100 | < 100 | < 100 | < 100 | < 100 | < 150 | > 150 | < 100 | < 150 | < 100 | < 100 | < 100 | > 150 | < 100 | < 100
Cc1nn2c([O-])cc(-c3ccc(C(F)(F)F)nc3)nc2c1-c1ccc(F)cc1F.[K+] [Compound 26, Potassium 3-(2,4-difluorophenyl)-2-methyl-5-(6-(trifluoromethyl)pyridin-3-yl)pyrazolo[1,5-α]pyrimidin-7-olate] | > 150 | < 150 | < 150 | < 100 | < 100 | < 100 | < 100 | < 150 | < 150 | > 150 | < 100 | < 100 | < 100 | < 150 | < 100 | > 150 | < 150 | < 100
Cc1nn2c([O-])cc(-c3ccc(S(N)(=O)=O)nc3)nc2c1-c1ccc(F)cc1F.[Na+] [Compound 29, Sodium 3-(2,4-difluorophenyl)-2-methyl-5-(6-sulfamoylpyridin-3-yl)pyrazolo[1,5-α]pyrimidin-7-olate] | > 150 | < 150 | < 150 | < 150 | > 150 | < 100 | < 150 | < 100 | > 150 | > 150 | < 100 | < 150 | < 100 | > 150 | > 150 | > 150 | > 150 | < 100
Cc1nn2c([O-])cc(-c3ccc([O-])cc3)nc2c1-c1ccc(F)cc1F.[Na+].[Na+] [Compound 6] | > 150 | < 150 | < 150 | < 100 | < 100 | < 100 | < 100 | < 150 | < 150 | > 150 | < 100 | < 100 | < 100 | < 150 | < 100 | > 150 | < 100 | < 100
Cc1nn2c([O-])cc(-c3ccc(C#N)cc3)nc2c1-c1ccc(F)cc1F.[K+] [Compound 20, Potassium 5-(4-cyanophenyl)-3-(2,4-difluorophenyl)-2-methylpyrazolo[1,5-α]pyrimidin-7-olate] | > 150 | < 150 | > 150 | < 100 | < 100 | < 150 | < 100 | < 100 | > 150 | < 150 | < 150 | < 100 | < 100 | < 150 | < 100 | < 150 | < 100 | 
Cc1nn2c([O-])cc(-c3ccc(C#N)nc3)nc2c1-c1ccc(F)cc1F.[K+] [Compound 27, Potassium 5-(6-cyanopyridin-3-yl)-3-(2,4-difluorophenyl)-2-methylpyrazolo[1,5-α]pyrimidin-7-olate] | > 150 | < 150 | > 150 | < 100 | < 100 | < 100 | < 100 | < 100 | > 150 | < 150 | < 150 | < 100 | < 100 | < 100 | < 100 | < 150 | < 100 | < 100
Cc1nn2c([O-])cc(-c3ccc(C#N)nc3)nc2c1-c1ccc(F)cc1F.[Na+] [Compound 15, sodium 5-(6-cyanopyridin-3-yl)-3-(2,4-difluorophenyl)-2-methylpyrazolo[1,5-α]pyrimidin-7-olate] | > 150 | < 150 | > 150 | < 100 | < 150 | < 150 | < 100 | < 100 | > 150 | > 150 | < 150 | < 100 | < 100 | < 150 | < 100 | > 150 | < 100 | 
Cc1nn2c([O-])cc(-c3ccc(C(N)=O)nc3)nc2c1-c1ccc(F)cc1F.[Na+] [Compound 32] | > 150 | < 150 | < 150 | < 150 | > 150 | < 100 | < 100 | < 100 | > 150 | > 150 | < 100 | < 150 | < 100 | < 150 | > 150 | > 150 | > 150 | < 100
Cc1nn2c([O-])cc(-c3ccc(C(=O)[O-])cc3)nc2c1-c1ccc(F)cc1F.[Na+].[Na+] [Compound 7, Disodium 4-(3-(2,4-difluorophenyl)-2-methyl-7-hydroxy-pyrazolo[1,5-α]pyrimidin-5-yl)benzoate] | > 150 | < 150 | < 150 | < 150 | > 150 | > 150 | < 150 | < 100 | > 150 | > 150 | < 100 | < 150 | < 100 | > 150 | > 150 | > 150 | > 150 | 
Cc1nn2c([O-])cc(-c3ccc([O-])nc3)nc2c1-c1ccc(F)cc1F.[Na+].[Na+] [Compound 19, Disodium 3-(2,4-difluorophenyl)-2-methyl-5-(6-hydroxypyridin-3-yl)pyrazolo[1,5-α]pyrimidin-7-olate] | > 150 | < 150 | < 150 | < 150 | > 150 | > 150 | < 100 | < 100 | > 150 | > 150 | < 100 | < 150 | < 100 | > 150 | > 150 | > 150 | > 150 | 
